Laboratory results reported in ChEMBL document CHEMBL5360585, “Spectasterols, Aromatic Ergosterols with 6/6/6/5/5, 6/6/6/6, and 6/6/6/5 Ring Systems from Aspergillus spectabilis” (J Nat Prod, 2023).
Activity calls are given as the source filed them. The calls are words filed in the database; no cut-off is given here.

What was measured:
SU-DHL-2 = assay: Cytotoxicity against human SUDHL2 cells assessed as inhibition of cell growth incubated for 48 hrs by CCK8 assay; type: functional, cell-based; conditions: SU-DHL-2, 48 h
HL-60 [1] = assay: Cytotoxicity against human HL-60 cells assessed as inhibition of cell growth incubated for 48 hrs by CCK8 assay; type: functional, cell-based; conditions: HL-60, 48 h
HL-60 [2] = assay: Induction of cell cycle arrest in human HL-60 cells assessed as accumulation of G1 phase cells at 7 uM incubated for 48 hrs (reference value: 42.0%); type: functional
HL-60 [3] = assay: Induction of cell cycle arrest in human HL-60 cells assessed as S phase cells at 7 uM incubated for 48 hrs (reference value: 32.3%); type: functional
HL-60 [4] = assay: Induction of cell cycle arrest in human HL-60 cells assessed as G2 phase cells at 7 uM incubated for 48 hrs (reference value: 23.7%); type: functional
HL-60 [5] = assay: Induction of cell cycle arrest in human HL-60 cells assessed as accumulation of G1 phase cells at 14 uM incubated for 48 hrs (reference value: 42.0%); type: functional
HL-60 [6] = assay: Induction of cell cycle arrest in human HL-60 cells assessed as S phase cells at 14 uM incubated for 48 hrs (reference value: 32.3%); type: functional
HL-60 [7] = assay: Induction of cell cycle arrest in human HL-60 cells assessed as G2 phase cells at 14 uM incubated for 48 hrs (reference value: 23.7%); type: functional
HL-60 [8] = assay: Induction of apoptosis in human HL-60 cells assessed as viable cells at 7 uM incubated for 48 hrs by Annexin V-FITC/PI staining based flow cytometric analysis (reference value: 84.1%); type: functional; conditions: read-out: Activity
HL-60 [9] = assay: Induction of apoptosis in human HL-60 cells assessed as early apoptotic cells at 7 uM incubated for 48 hrs by Annexin V-FITC/PI staining based flow cytometric analysis (reference value: 11.0%); type: functional
HL-60 [10] = assay: Induction of apoptosis in human HL-60 cells assessed as late apoptotic cells at 7 uM incubated for 48 hrs by Annexin V-FITC/PI staining based flow cytometric analysis (reference value: 4.53%); type: functional
HL-60 [11] = assay: Induction of apoptosis in human HL-60 cells assessed as necrotic cells at 7 uM incubated for 48 hrs by Annexin V-FITC/PI staining based flow cytometric analysis (reference value: 0.39%); type: functional
HL-60 [12] = assay: Induction of apoptosis in human HL-60 cells assessed as viable cells at 14 uM incubated for 48 hrs by Annexin V-FITC/PI staining based flow cytometric analysis (reference value: 84.1%); type: functional; conditions: read-out: Activity
HL-60 [13] = assay: Induction of apoptosis in human HL-60 cells assessed as early apoptotic cells at 14 uM incubated for 48 hrs by Annexin V-FITC/PI staining based flow cytometric analysis (reference value: 11.0%); type: functional
HL-60 [14] = assay: Induction of apoptosis in human HL-60 cells assessed as late apoptotic cells at 14 uM incubated for 48 hrs by Annexin V-FITC/PI staining based flow cytometric analysis (reference value: 4.53%); type: functional
HL-60 [15] = assay: Induction of apoptosis in human HL-60 cells assessed as necrotic cells at 14 uM incubated for 48 hrs by Annexin V-FITC/PI staining based flow cytometric analysis (reference value: 0.39%); type: functional
RAW264.7 [16] = assay: Antiinflammatory activity in mouse RAW264.7 cells assessed as inhibition of LPS-induced NO production preincubated with compound for 1 hrs followed by LPS stimulation and measured after 24 hrs by Griess reagent based method; type: functional, cell-based
RAW264.7 [17] = assay: Antiinflammatory activity in LPS-induced mouse RAW264.7 cells assessed as reduction in COX2 mRNA expression at 5 to 20 uM incubated for 24 hrs by qRT-PCR analysis; type: functional, cell-based; conditions: dose 5-20 µM
RAW264.7 [18] = assay: Antiinflammatory activity in LPS-induced mouse RAW264.7 cells assessed as reduction in iNOS mRNA expression at 5 to 20 uM incubated for 24 hrs by qRT-PCR analysis; type: functional, cell-based; conditions: dose 5-20 µM
RAW264.7 [19] = assay: Antiinflammatory activity in LPS-induced mouse RAW264.7 cells assessed as reduction in IL-1beta mRNA expression at 5 to 20 uM incubated for 24 hrs by qRT-PCR analysis; type: functional, cell-based; conditions: dose 5-20 µM
RAW264.7 [20] = assay: Antiinflammatory activity in mouse RAW264.7 cells assessed as inhibition of LPS-induced nuclear translocation of NF-kappaB p65 preincubated with compound for 1 hrs followed by LPS stimulation and measured after 24 hrs by DAPI staining based immunofluorescence analysis; type: functional, cell-based; conditions: dose 5-20 µM, time 25.0 hrs
RAW264.7 [21] = assay: Antiinflammatory activity in LPS-induced mouse RAW264.7 cells assessed as reduction in COX-2 protein expression by Western blot analysis; type: functional, cell-based; conditions: dose 5-20 µM

- IC50 (RAW264.7 [16]): 19.3 µM
Structure (SMILES): Cc1cc2c(c3c1C[C@@H](O)CC3)CC[C@@]1(C)[C@H]2CCC(=O)[C@@]1(C)/C=C/[C@H](C)C(C)C
- IC50 (SU-DHL-2): 6.9 µM
- IC50 (HL-60 [1]): 8.7 µM
- Activity (HL-60 [2]): 53.9%
- Activity (HL-60 [3]): 24.7%
- Activity (HL-60 [4]): 16.1%
- Activity (HL-60 [5]): 62.3%
- Activity (HL-60 [6]): 24.9%
- Activity (HL-60 [7]): 9.7%
- viability at 7 µM (HL-60 [8]): 76.3%
- Activity (HL-60 [9]): 12.1%
- Activity (HL-60 [10]): 11%
- Activity (HL-60 [11]): 0.57%
- viability at 14 µM (HL-60 [12]): 21.3%
- Activity (HL-60 [13]): 21.9%
- Activity (HL-60 [14]): 53.8%
- Activity (HL-60 [15]): 2.95%
- Activity (RAW264.7 [17]): Active
- Activity (RAW264.7 [18]): Active
- Activity (RAW264.7 [19]): Active
- Activity (RAW264.7 [20]): Dose-Dependent Effect
- Activity (RAW264.7 [21]): Dose-Dependent Effect
